Test results as given in patent publication US20250368648A1, “MULTI-CYCLIC IRAK AND FLT3 INHIBITING COMPOUNDS AND USES THEREOF” (CHILDREN'S HOSPITAL MEDICAL CENTER, priority 2022, published 2025).
pIC50: −log10 of the molar value. Like-named read-outs stand apart in the source and are kept apart here.

Key:
[1] = system: MOLM14-FLT3-ITD (D835Y) AML cells; assay: Caspase-Glo 3/7 apoptosis assay, time course; type: cell-based; details: 4.12 nM added to dose level 7 of Compound 106 with dose level 7 of venetoclax
MOLM14 D835Y cells = assay: MOLM14 D835Y cell viability assay (Cell Titer Glo); type: cell-based; details: Homo sapiens, MOLM-14, 48 h
Experimental: The cell line has activated FLT3 receptors which carry additional resistance mutations in the kinase domain (D835Y).
MOLM14 D835Y cells were grown in RPMI-1640 media supplemented with 20% fetal bovine serum (FBS). […] After cell addition, 23 nL of test compound were transferred into individual wells (22 doses tested for each test compound, with a 1:2 dilution series starting at 10 μM) via a 1536 pin-tool. Bortezomib (final concentration 2.3 μM) was used as a positive control for cell cytotoxicity.

FLT3 = molecular target: T1, FLT3 (Homo sapiens, UniProt P36888); assay: RBC HotSpot Kinase Assay, FLT3; type: biochemical; design: purchased RBC (Reaction Biology) HotSpot assay; details: HotSpot functional assay, isolated kinase enzyme, 33P-ATP
T1 sequence (P36888 27-993): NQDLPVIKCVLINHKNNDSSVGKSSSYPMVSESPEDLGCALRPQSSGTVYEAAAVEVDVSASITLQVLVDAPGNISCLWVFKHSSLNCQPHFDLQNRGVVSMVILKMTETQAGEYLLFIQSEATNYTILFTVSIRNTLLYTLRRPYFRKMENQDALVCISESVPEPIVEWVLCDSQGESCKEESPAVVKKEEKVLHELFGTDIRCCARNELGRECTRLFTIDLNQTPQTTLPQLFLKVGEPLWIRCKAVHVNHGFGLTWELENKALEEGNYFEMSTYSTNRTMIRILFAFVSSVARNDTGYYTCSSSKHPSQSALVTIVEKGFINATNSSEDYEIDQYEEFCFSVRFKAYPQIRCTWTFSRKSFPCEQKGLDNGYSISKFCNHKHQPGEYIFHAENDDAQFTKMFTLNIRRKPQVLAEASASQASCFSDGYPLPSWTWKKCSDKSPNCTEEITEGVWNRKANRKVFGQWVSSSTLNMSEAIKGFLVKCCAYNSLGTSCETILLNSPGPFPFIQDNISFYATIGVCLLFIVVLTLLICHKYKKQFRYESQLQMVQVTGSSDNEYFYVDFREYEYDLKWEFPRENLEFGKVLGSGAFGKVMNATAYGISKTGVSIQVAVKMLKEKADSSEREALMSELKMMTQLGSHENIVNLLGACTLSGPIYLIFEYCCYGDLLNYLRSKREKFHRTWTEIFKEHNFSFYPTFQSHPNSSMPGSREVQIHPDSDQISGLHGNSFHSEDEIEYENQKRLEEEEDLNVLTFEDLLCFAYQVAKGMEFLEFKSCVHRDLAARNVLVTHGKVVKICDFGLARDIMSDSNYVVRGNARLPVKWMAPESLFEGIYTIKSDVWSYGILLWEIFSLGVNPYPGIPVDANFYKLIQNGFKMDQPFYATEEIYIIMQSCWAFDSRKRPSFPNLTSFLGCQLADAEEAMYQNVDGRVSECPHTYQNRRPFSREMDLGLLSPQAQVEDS
How it was run: (§1)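 Isolated kinases, possibly truncated or lacking regulatory receptor regions, were preincubated with compound for 20 min at room temp in 20 mM Hepes pH 7.5, 10 mM MgCl2, 1 mM EGTA, 2 mM DTT, 1% DMSO. Reactions were started with ^33P-ATP and run 2 h at room temperature; activity was read by P81 filter binding.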

IRAK1 = molecular target: T2, IRAK1 (Homo sapiens, UniProt P51617); assay: RBC HotSpot Kinase Assay, IRAK1; type: biochemical; details: HotSpot functional assay, isolated kinase enzyme, 33P-ATP
T2 construct: purchased RBC (Reaction Biology) HotSpot assay
T2 sequence (P51617 whole entry): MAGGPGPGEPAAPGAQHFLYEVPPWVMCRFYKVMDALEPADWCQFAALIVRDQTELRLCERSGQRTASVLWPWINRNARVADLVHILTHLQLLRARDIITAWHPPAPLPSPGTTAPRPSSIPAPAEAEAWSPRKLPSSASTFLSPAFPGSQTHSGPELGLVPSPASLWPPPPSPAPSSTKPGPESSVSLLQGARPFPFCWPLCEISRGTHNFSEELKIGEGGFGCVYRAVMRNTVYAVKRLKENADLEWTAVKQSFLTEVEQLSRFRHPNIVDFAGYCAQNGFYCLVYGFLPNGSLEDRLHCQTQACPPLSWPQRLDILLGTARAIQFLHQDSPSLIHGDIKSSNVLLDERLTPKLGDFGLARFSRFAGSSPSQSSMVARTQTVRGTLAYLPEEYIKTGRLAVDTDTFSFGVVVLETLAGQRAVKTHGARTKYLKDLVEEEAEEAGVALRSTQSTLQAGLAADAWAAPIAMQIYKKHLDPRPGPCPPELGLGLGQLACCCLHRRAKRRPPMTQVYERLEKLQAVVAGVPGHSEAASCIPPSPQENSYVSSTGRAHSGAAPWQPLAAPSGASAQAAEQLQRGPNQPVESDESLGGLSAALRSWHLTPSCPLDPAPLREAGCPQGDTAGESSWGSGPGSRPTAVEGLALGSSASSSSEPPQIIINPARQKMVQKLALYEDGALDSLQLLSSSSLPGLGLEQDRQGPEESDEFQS
How it was run: as §1

IRAK4 = molecular target: T3, IRAK4 (Homo sapiens, UniProt Q9NWZ3); assay: RBC HotSpot Kinase Assay, IRAK4; type: biochemical; design: purchased RBC (Reaction Biology) HotSpot assay; details: HotSpot functional assay, isolated kinase enzyme, 33P-ATP
T3 sequence (Q9NWZ3 1-460): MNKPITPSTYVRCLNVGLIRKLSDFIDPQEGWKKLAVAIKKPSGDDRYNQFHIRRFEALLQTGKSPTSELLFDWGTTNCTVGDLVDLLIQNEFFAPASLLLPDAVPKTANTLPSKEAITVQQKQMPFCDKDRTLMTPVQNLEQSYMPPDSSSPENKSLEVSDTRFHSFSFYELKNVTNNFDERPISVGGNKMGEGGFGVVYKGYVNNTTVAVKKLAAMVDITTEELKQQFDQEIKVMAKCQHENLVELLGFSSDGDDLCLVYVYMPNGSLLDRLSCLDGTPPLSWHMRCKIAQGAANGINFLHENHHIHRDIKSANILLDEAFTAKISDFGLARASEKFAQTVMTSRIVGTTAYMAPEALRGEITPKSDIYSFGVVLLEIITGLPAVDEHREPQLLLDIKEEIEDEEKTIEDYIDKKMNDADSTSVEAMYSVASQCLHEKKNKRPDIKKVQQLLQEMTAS
How it was run: as §1

NF-κB = assay: NF-kB assay in THP-1-Blue NF-κB cells (SEAP reporter); type: cell-based
Experimental: THP-1-Blue NF-κB cells (InvivoGen) carrying a stable integrated NF-κB-inducible secreted embryonic alkaline phosphatase (SEAP) reporter construct were plated at a concentration of 1×10^5 cells per well. The cells were stimulated with Pam3CSK4 (1 ng/mL) or hIL1B (Ing/mL). After 10-20 minutes, the cells were then treated with vehicle (DMSO) or serial dilutions of the test compounds (10 doses tested for each test compound, with a 1:10 dilution series starting at 1 μM or 3 μM) with a final volume of 200 μL for 24 hours at 37° C. After 24 hours, the cells were centrifuged and 20 IL supernatant was incubated with 180 μL QUANTI-Blue reagent at 37° C. for 30-60 minutes. The levels of NF-κB-induced was measured in a microplate reader at 620 nm.

[2] = THP-1-Blue NF-κB cells stimulated with Pam3CSK4, 24 hours, read-out: NF-κB Pam3SCK4 IC50
[3] = THP-1-Blue NF-κB cells stimulated with hIL1B, 24 hours, read-out: NF-κB IL1B IC50

SMILES | benefit of a third agent added to Compound 106 with venetoclax (apoptosis) [1] | pIC50 (MOLM14 D835Y cells) | pIC50 (FLT3) | pIC50 (IRAK1) | pIC50 (IRAK4) | pIC50 (NF-κB; [2]) | pIC50 (NF-κB; [3])
Nc1ncn([C@@H]2O[C@H](CO)[C@@H](O)[C@H]2O)c(=O)n1 [Compound 5-azacitdine, 5-azacitdine, reference compound] | little to no additional benefit |  |  |  |  |  | 
COc1cc2ncc(-c3nc(N[C@H]4CNC[C@@H]4F)ccc3F)n2nc1C1CC1 [Compound 45a, 6-(6-cyclopropyl-7-methoxyimidazo[1,2-b]pyridazin-3-yl)-5-fluoro-N-((3S,4S)-4-fluoropyrrolidin-3-yl)pyridin-2-amine] |  | 7.70 | > 9.30 | 7.43 | > 9.30 | 7.36 | 7.35
COc1cc2ncc(-c3ccc(F)c(N[C@H]4CNC[C@@H]4F)n3)n2nc1C1CC1 [Compound 46a, 6-(6-cyclopropyl-7-methoxyimidazo[1,2-b]pyridazin-3-yl)-3-fluoro-N-((3S,4S)-4-fluoropyrrolidin-3-yl)pyridin-2-amine] |  | 6.94 | > 9.30 | 7.92 | > 9.30 | 7.23 | 7.14
COc1cc2ncc(-c3nc(N[C@H]4CNCC[C@@H]4F)ccc3F)n2nc1C1CC1 [Compound 47a, 6-(6-cyclopropyl-7-methoxyimidazo[1,2-b]pyridazin-3-yl)-5-fluoro-N-((3S,4S)-4-fluoropiperidin-3-yl)pyridin-2-amine] |  | 8.40 | > 9.30 | 8.22 | > 9.30 | 7.35 | 7.02
COc1cc2ncc(-c3nc(N[C@H]4CNCC[C@@H]4F)c(F)cc3F)n2nc1C1CCO1 (stereo partly drawn) [Compound 74a, 3,5-difluoro-N-((3S,4S)-4-fluoropiperidin-3-yl)-6-(7-methoxy-6-(oxetan-2-yl)imidazo[1,2-b]pyridazin-3-yl)pyridin-2-amine] |  |  | > 9.30 | 7.23 | 8.52 | 6.60 | 6.46
Oc1cc2ncc(-c3nc(N[C@@H]4CCCNC4)c(F)cc3F)n2nc1C1CC1 [Compound 75a, (R)-6-cyclopropyl-3-(3,5-difluoro-6-(piperidin-3-ylamino)pyridin-2-yl)imidazo[1,2-b]pyridazin-7-ol] |  |  | 9.10 | 6.33 | 7.47 | 5.76 | 5.64
